According to US20240115532A1, “USE OF L-ERGOTHIONEINE FOR ALLEVIATING AND PREVENTING AGE-RELATED VISUAL DEGENERATION” (NANJING NUTRABUILDING BIO-TECH CO., LTD., priority 2021, published 2024):

Tests used:
[1] = test system: zebrafish retinal structure; experiment: Zebrafish eye histopathology (H&E) after cobalt chloride model; assay type: in vivo; details: FIG. 2
Text: Experimental animals, sample preparation, sample processing and administration are same as test 4. After that, these zebrafish after 3 days of administration were fixed with 4% histiocyte fixative, then stained with H&E and they were subject to test ocular histopathological analysis.

[2] = test system: Reactive oxygen species (ROS); experiment: ROS in retina tissue by 2',7'-dichlorofluorescein diacetate fluorescence; assay type: in vivo, C57BL/6J mice; details: aged mice, 2 or 10 mg/kg/d by gavage for 5 months
Procedure: (§1) They were randomly divided into three groups: (1) non-supplement group (Con, n=6); (2) L-Ergothioneine supplement group with low dosage (L-Ergothioneine, 2 mg/kg/d, n=6); (3) L-Ergothioneine supplement group with high dosage (L-Ergothioneine, 10 mg/kg/d, n=6). Some mice were administered L-Ergothioneine for once daily by gavage in normal saline solution for 5 months.
(§2) Mice were euthanized by CO2 inhalation followed by cervical dislocation at the end of study and their eyes were immediately removed. The eyes of some mice (n=3) fixed in 2% paraformaldehyde for 2 h and the retina samples of some mice (n=3) were isolated from eyes radically. All tissues were frozen in optimal cutting temperature embedding compound.
Partial retina tissues were obtained and rapidly broken up in ice-cold normal saline. A tissue homogenate (10%, w/v) was then prepared.
Antioxidant capacity of the retina was measured using an assay based on the ability of the sample to inhibit the oxidation of 2,2′-azino-di-[3-ethylbenzthiazoline sulfonate]+(ABTS) by metmyoglobin. The amount of ABTS+ produced was measured in terms of the decrease in absorbance caused by the antioxidants in the sample. Reactive oxygen species (ROS) were quantified by fluorescence spectroscopy using 2′,7′-dichlorofluorescein diacetate.

VEGFR1 genes = experiment: Zebrafish q-PCR of VEGFR1 genes; assay type: in vivo; details: 3 days at 28° C., β-actin internal reference, FIG. 4
Procedure: Except that the positive control is bevacizumab (a potent antiangiogenic substance), experimental animals, sample preparation of L-Ergothioneine and sample processing are the same as in test 4.
(§3) After 3 days of supplementation at 28° C., the total RNA of each group of zebrafish was extracted using an RNA rapid extraction kit, and the concentration and purity of total RNA were determined by UV-Vis spectrophotometer. Take 2.00 μg of total RNA from zebrafish samples and follow the instructions of the first-strand cDNA synthesis kit to synthesize 20.0 μL of cDNA, and detect the expression of ß-actin and VEGFR1 genes by q-PCR. Using 6-actin as an internal reference for gene expression, the relative RNA expression levels of VEGFR1 genes were calculated.

[3] = test system: subretinal choroidal neovascularization; experiment: Zebrafish wet macular degeneration model (cobalt chloride), choroidal vessel area; assay type: in vivo; details: 500, 1000, 2000 μg/mL in water, 3 days, 28° C., FIG. 1
Procedure: Experimental animals: Zebrafish were raised in fish water at 28° C. (water quality: 200 mg of instant sea salt was added to each 1 L of reverse osmosis water, the conductivity was 450-550 μS/cm; pH was 6.5-8.5; hardness was […] CaCO3). Transgenic vascular green fluorescent zebrafish (Fli-1 strain) were reproduced by natural paired mating. Age is 1 day after fertilization (1 dpf).
Sample preparation: L-Ergothioneine, white powder, was prepared into 2.00 mg/mL mother solution with standard dilution water. Positive control: Aescin and digitalis double glucoside eye drops was directly sucked the original solution.
Experimental design: The transgenic vascular green fluorescent strain zebrafish aged 1 day after fertilization (1 dpf) were randomly selected and placed in a 6-well plate, with 30 fish in each well (each experimental group). L-Ergothioneine (concentrations of 500, 1000, and 2000 μg/mL) were administered in water solution, respectively, and the positive control escin and digitalis glucoside eye drops (containing 0.3 μg/mL of digitonin and 2.0 μg/mL of escin) were administered, respectively. […] After 3 days of treatment at 28° C., 10 zebrafish were randomly selected from each experimental group and placed under a fluorescence microscope to take pictures, and the NIS-Elements D 3.20 advanced image processing software was used to analyze and collect the data. […]

[4] = test system: oxidation-induced EMT in RPE; experiment: Immunoreactivity of mesenchymal markers (Slug, Snail, vimentin, OB-cadherin) in RPE sections; assay type: in vivo, C57BL/6J mice; details: aged mice, 2 or 10 mg/kg/d by gavage for 5 months
Procedure: as §1, §2
From paraffin embedded blocks, 3 μm-thick parasagittal serial sections were cut with a microtome for future testing the immunoreactivity of mesenchymal markers. The immunoreactivity of mesenchymal markers (Slug, Snail, vimentin, OB-cadherin) was examined with a confocal microscope. And semi-quantitative comparative densitometric analysis performed by ImageJ of the immunoreactivity of the mesenchymal markers in 1-μm parasagittal sections of RPE. Alexa Fluor secondary antibodies were used to detect specific mesenchymal markers. DAPI (4,6-diamidino-2-fenilindole, dihydrochloride) was used to stain the nuclei of RPE cells.

ROS = experiment: Zebrafish ROS fluorescence value (CM-H2DCFDA); assay type: in vivo; details: wild-type AB strain, 500, 1000, 2000 μg/mL, 2 days plus 20 hours staining, FIG. 3
Procedure: After 2 days of supplementation at 28° C., zebrafish were stained with CM-H2DCFDA, and the original concentration in each well remained unchanged. 10 zebrafish were randomly selected from each experimental group and transferred to black 96 microtiter plates.

[5] = test system: subretinal choroidal neovascularization (CNV); experiment: Fluorescein angiography of Matrigel-induced subretinal CNV in aged mice; assay type: in vivo, C57BL/6J mice; details: 2 or 10 mg/kg/d by gavage for 5 months
Text: The healthy and male C57BL/6J mice at 18-24 months of age were maintained under the barrier conditions in a temperature-controlled environment and fed a commercial mouse chow.
The healthy and male C57BL/6J mice at 14-18 months of age were maintained under the barrier conditions in a temperature-controlled environment and fed a commercial mouse chow.
Animal mode of subretinal choroidal neovascularization (CNV): All mice were subretinally injected with Matrigel in both eyes under general anesthesia. The liquid Matrigel (75% v/v) was prepared using phosphate-buffered saline (PBS) at 4° C. After exposing the sclera, an incision was made between the limbus and the equator using a sharp No. 33 size needle. The Matrigel suspension (0.5 μl per eye) administered via a Hamilton microsyringe with a No. 33 blunt tip needle was slowly injected into the subretinal space along the previous needle tract. Following injection, the Matrigel polymerized to form a solid gel. Fluorescence angiograms were performed over a period of 3 weeks to identify whether mice have CNV.
Fluorescein angiography: After subretinal injection, fluorescein angiograms were obtained on days 3, 7, 10, 14, and 21. Briefly, every mouse group (n=5) were anesthetized with ketamine and xylazine, and the pupils were dilated with 0.5% tropicamide eye drops. […]

hif-1α genes = experiment: Zebrafish q-PCR of hif-1α genes; assay type: in vivo; details: 3 days at 28° C., FIG. 5
Procedure: as §3
(§4) The other test condition and methods are the same as test 7. Except that just detect 6-actin, hif-1α and vegfaa genes by q-PCR.

VEGF = VEGF ELISA in retina tissue homogenate; assay type: in vivo, C57BL/6J mice; details: aged mice, 2 or 10 mg/kg/d by gavage for 5 months
Procedure: They were randomly divided into three groups: (1) non-supplement group (Con, n=6); (2) L-Ergothioneine supplement group with low dosage (L-Ergothioneine, 2 mg/kg/d, n=6); (3) L-Ergothioneine supplement group with high dosage (L-Ergothioneine, 10 mg/kg/d, n=6). Some mice were administered L-Ergothioneine for once daily by gavage in normal saline solution for 5 months. […] Partial retina tissues were obtained and rapidly broken up in ice-cold normal saline. A tissue homogenate (10%, w/v) was then prepared. Retina tissues homogenate was centrifuged (2000 rpm, 10 min, 4° C.) and the supernatants were collected and applied to a pre-coated human VEGF microplate. VEGF concentrations was measured in experimental groups of mice using enzyme-linked immunosorbent assay (ELISA) kits to evaluate the levels of proinflammatory cytokines in the retina. This test can assess that the ability of L-Ergothioneine to prevent age-related visual degeneration-induced increases in VEGF level.

Nrf2 = Nrf2 real-time PCR in retina tissues; assay type: in vivo, C57BL/6J mice; details: aged mice, 2 or 10 mg/kg/d by gavage for 5 months
Procedure: as §1, §2
Total RNA was isolated from retina tissues using Trizol reagent. Real-time PCR was measured and performed with the following primers: Nrf2 forward 5′-[…]-3′. RNA samples were reverse-transcribed to cDNA and subjected to quantitative PCR, performed with a Light Cycler 96 Real-Time PCR System using the AceQ qPCR SYBR Green Master Mix. Nrf2 measurements can be identify the capacity of L-Ergothioneine-mediated Nrf2.

vegfaa genes = experiment: Zebrafish q-PCR of vegfaa genes; assay type: in vivo; details: 3 days at 28° C., FIG. 6
Procedure: as §3, §4

Q: How did the “damage of zebrafish retinal structure (histopathological section)” value ([1]; 500, 1000, 2000 μg/mL, 3 days, H&E) turn out when `C[N+](C)(C)[C@@H](Cc1c[nH]c(=S)[nH]1)C(=O)[O-]` [L-Ergothioneine] was run?
A: The value was “can improve the damage of zebrafish retinal structure”.

Q: What about the “effect on retinal structure compared with positive control eye drops” value ([1]; versus aescin and digitalis double glucoside eye drops) of the same molecule?
A: The value was “better than that of aescin and digitalis double glucoside eye drops”.

Q: What about the “scavenging of chronic ROS in retina” value [2] of the same molecule?
A: The value was “about 45%”.

Q: And the “relative expression level of VEGFR1 genes” value (VEGFR1 genes)?
A: The value was “decreasing the expression of VEGFR1 genes”.

Q: And the “choroidal vessel area of the zebrafish eye” value [3]?
A: The value was “could mitigate subretinal choroidal neovascularization”.

Q: What about the “mesenchymal marker immunoreactivity in RPE” value [4] of the same molecule?
A: The value was “decreased”.

Q: What about the “oxidation-induced EMT / epithelial fibrosis in RPE” value [4] of the same molecule?
A: Its value is “inhibited”.

Q: What about the “ROS fluorescence value of zebrafish” value (ROS) of the same molecule?
A: Its value is “good effect on preventing retinal degeneration”.

Q: What about the CNV level [5] of the same molecule?
A: Its CNV level is “attenuated obviously”.

Q: What about the “relative expression level of hif-1α genes” value (hif-1α genes) of the same molecule?
A: The value was “lowering the expression level”.

Q: What about the “decrease of VEGF level in retina” value (VEGF) of the same molecule?
A: The value was “about 50%”.

Q: What about the “activation of Nrf2-mediated genes in retina” value (Nrf2) of the same molecule?
A: Its value is “activated”.

Q: What about the “relative expression level of vegfaa genes” value (vegfaa genes) of the same molecule?
A: Its value is “lowering the expression level”.
